Data reported in US20250288704A1, “CXCR4-LIGANDS FOR DIAGNOSTIC AND THERAPEUTIC USE AND PRECURSORS THEREOF” (priority 2021, published 2025).
Where two headings read alike, the source gives them in different places. Non-standard residues stand in square brackets, D forms with d. Residues, ends and D or L forms follow the SMILES beside them. Groups on a side chain read outwards from the residue. *: point of attachment. 2Nal = N[C@@H](Cc1ccc2ccccc2c1)C(=O)O; dNMeOrn = CN[C@H](CCCN)C(=O)O; 4Abz = Nc1ccc(C(=O)O)cc1; X1 = NCCNCC(CNCCN)C(=O)*; dDap = NC[C@@H](N)C(=O)O

Key:
CXCR4 [1] = target: T1, CXCR4 (Homo sapiens, UniProt P61073); assay: Determination of IC50: competition with 125I-Fc-131 on CXCR4-positive Jurkat cells; type: binding; parameters: CXCR4-positive Jurkat T lymphocyte cells were grown in Gibco's RPMI 1640 GlutaMAX medium; endogenous in cells; host or cells: Jurkat T lymphocyte cells (whole cells in suspension, 400.000 per tube);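 note: test compound at 10^−5 to 10^−11 M competed for 2 h at 8 °C with the radioligand on 400,000 cells per well, bound versus free activity measured by γ-counting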
Method: For in vitro experiments, cells were counted in a hemocytometer using trypan blue as contrast agent. The cell suspension was centrifuged, and the pellet resuspended in HBSS (+1 wt % BSA) to a concentration of 2 mio cells/mL. […] 200 μL of cell suspension (400.000 cells per well) were added to obtain a final peptide concentration range of 10^−5-10^−11 M. The tubes were cooled for 2 h at 8° C. to prevent internalization. The experiment was stopped by removal of the supernatant. 200 μL HBSS were added onto the cells, the suspension centrifuged, and the supernatant pooled with the respective first fractions. This step was repeated once more before the tubes containing the supernatants and the ones containing the cell pellets were subjected to activity measurement in the γ-counter.

U2932 cells [2] = conditions: 10, 20, 40, 100 nM, 24-96 h
Method: (§1) Two cell lines were selected for the respective experiments. The B-cell lymphoma cell line U2932 and the higher CXCR4 expressing lymphoblast-like Raji cell line. Both cell lines were incubated with the PDC for 24, 48, 72 and 96 hours in varying concentrations of 0 (Blank), 10, 20, 40 and 100 nM.

U2932 cells [3] = conditions: 72 h, increasing amounts of PDC
Method: For that purpose, cells were fixed, permeabilized and treated with propidium iodide. The number of cells in the G0/G1-, S— and G2/M-phase was then measured with regards to the amount of PDC used.

[4] = Octanol/PBS partition coefficient (logD7.4); type: physicochemical; conditions: n-octanol/PBS pH 7.4, radiolabeled compound
Method: The tubes were vortexed at maximum speed for 3 min to ensure equilibrium before centrifugation at 15.000×g for 5 min on a Biofuge 15 from Heraeus Holding GmbH (Osterode, Germany). An aliquot of 100 μL of each fraction was measured in the γ-counter and the log D7.4 calculated as follows: […]

[5] = tested on: CXCR4-expressing Chem_1 cells; assay: Determination of internalization, dual tracer with 125I-Fc-131; type: cell-based; conditions: for Cell-bound [%] / Internalized [%]: of total cellular activity
Procedure, shortened: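 Chem_1 cells grown in DMEM-F12 with 10% FBS at 37 °C; wells (n=3 per time point) received medium or AMD3100 (1 mM stock) to block receptors. Unbound, surface-bound and NaOH-lysed internalized fractions were γ-counted; data corrected for non-specific internalization and referred to standard ligand specific internalization.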

[6] = Biodistribution in Jurkat tumor-bearing CB-17 SCID mice; type: in vivo; conditions: female, CB-17 SCID, mouse, in vivo, iv, total radioactivity, 1 h p.i., Jurkat xenograft, CB-17 SCID female mice
Procedure, shortened: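 CB17-SCID mice bore subcutaneous Jurkat xenografts (2-3×10^7 cells in Matrigel, shoulder), used at 5-8 mm tumor diameter. About 0.5-20 MBq (0.02-0.20 nmol) of 125I-, 177Lu-, 99mTc-, 18F- or 68Ga-labeled ligand given by tail vein; organs weighed and γ-counted after set times.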

[7] = Method: The radiosynthesis of [^99mTc]CXCR4-Tc-14 was performed manually, as described in chapter 4.2.3 above. Images were acquired after injection of 430-604 MBq of [^99mTc]CXCR4-Tc-14 at 5 min to 21 h p.i. Details of the scanning procedure are set out below.
Clinical evaluation of [^99mTc]CXCR4-Tc-14 in patients was conducted under compassionate use in compliance with the German Medicinal Products Act, AMG § 13 2b, and in accordance with the responsible authorities (Government of Oberbayern). First proof-of-concept studies were performed at the Universitätsklinikum Augsburg (Augsburg, Germany).
All subjects were examined on a Discovery MN CT 670 Pro equipped with an Optima 540 CT (GE Healthcare, Solingen, Germany). Full-body SPECT/CT scans at 5 and 60 min after tracer injection were acquired with a scanning speed of 30 cm/min, scans at 120 and 300 min were acquired with a scanning speed of 12 cm/min and scans at 21 h were acquired with a scanning speed of 5 cm/min. The scans were obtained in 60 subsets using the double-head technology in matrices of 128×128 (zoom 1). SPECT scans at 60 and 180 min after tracer injection were acquired with an exposure time of 8 sec per subset and scans at 21 h were acquired with an exposure time of 16 sec per subset. Emission data were smoothed applying a Butterworthfilter (0.48) and reconstructed iteratively by an ordered-subsets expectation maximization algorithm (2 iterations, 10 subsets). Images were obtained after injection of 430-604 MBq of [^99mTc]CXCR4-Tc-14 at 5 min to 21 h p.i.
The specific and effective doses in selected organs were analyzed. For calculation of the doses, voxels of interest were defined around areas with increased uptake in full-body images. Time-activity curves for the respective organs were automatically determined and the residence time of the tracer calculated using the specific calibration of the SPECT camera and a standard activity value. The residence time was used as the input data for the Olinda/EXM software. The output of this calculation was referred to the dosimetry guideline of the International Commission on Radiological Protection.

CXCR4 [8] = target: T1, CXCR4; assay: Determination of inverse IC50 (invIC50): radiolabeled peptide displaced by Fc-131 on Jurkat cells; conditions: read-out: invIC50; radiolabeled compound displaced by Fc-131, Jurkat cells
Method: For in vitro experiments, cells were counted in a hemocytometer using trypan blue as contrast agent. The cell suspension was centrifuged, and the pellet resuspended in HBSS (+1 wt % BSA) to a concentration of 2 mio cells/mL. 8×3 polystyrene tubes were loaded with 25 μL of the standard ligand ^125I-Fc-131 (see 4.1, 1.00 nM in HBSS) and 25 μL of the ligand to investigate in the respective concentration (10^−4-10^−10 M, n=3 for each concentration). 200 μL of cell suspension (400.000 cells per well) were added to obtain a final peptide concentration range of 10^−5-10^−11 M. The tubes were cooled for 2 h at 8° C. to prevent internalization. The experiment was stopped by removal of the supernatant. 200 μL HBSS were added onto the cells, the suspension centrifuged, and the supernatant pooled with the respective first fractions. This step was repeated once more before the tubes containing the supernatants and the ones containing the cell pellets were subjected to activity measurement in the γ-counter.
For the determination of inverse IC50 (invIC50) values the protocol for the determination of regular IC50 values was resumed with minor changes. The peptide under investigation was radioactively labeled and a stock solution was prepared in HBSS (2.00 nM). A concentration gradient of the standard ligand Fc-131 was prepared in HBSS (10^−4-10^−10 M). A cell tube was then containing 25 μL of the radioactive peptide solution, 25 μL of the respective Fc-131 solution and 200 μL cell suspension (400.000 cells). The experiment was conducted as described above.

[9] = patient, multiple myeloma, 604 MBq

T1 sequence (P61073 whole entry): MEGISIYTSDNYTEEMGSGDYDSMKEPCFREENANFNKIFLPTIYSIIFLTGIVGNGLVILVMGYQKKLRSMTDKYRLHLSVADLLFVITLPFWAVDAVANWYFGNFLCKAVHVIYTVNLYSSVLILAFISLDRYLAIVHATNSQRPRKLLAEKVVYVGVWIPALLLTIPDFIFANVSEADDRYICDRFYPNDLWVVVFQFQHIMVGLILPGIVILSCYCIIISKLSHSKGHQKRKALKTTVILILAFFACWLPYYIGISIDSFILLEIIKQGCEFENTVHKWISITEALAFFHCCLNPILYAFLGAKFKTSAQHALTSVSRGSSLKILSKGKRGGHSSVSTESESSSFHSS
Method for Raji cells: as §1

CC[C@H](C)[C@@H]([C@@H](CC(=O)N1CCC[C@H]1[C@H](OC)[C@@H](C)C(=O)N[C@H](C)C(O)c1ccccc1)OC)N(C)C(=O)[C@@H](NC(=O)[C@H](C(C)C)N(C)C(=O)OCc1ccc(NC(=O)[C@H](CCCNC(N)=O)NC(=O)[C@@H](NC(=O)CCCCCN2C(=O)CC(SCC[C@@H](N)C(=O)NC(CCCNC(=N)N)C(=O)N[C@H](C)C(=O)Nc3ccc(C(=O)NCCC[C@@H]4C(=O)N[C@@H](CCCNC(=N)N)C(=O)N[C@H](Cc5ccc6ccccc6c5)C(=O)NCC(=O)N[C@@H](Cc5ccc(O)cc5)C(=O)N4C)cc3)C2=O)C(C)C)cc1)C(C)C (stereo partly drawn) [CXCR4-MMAE-2]
IC50 (CXCR4 [1]): 42.6 ± 8.3 nM
fraction of dead cells (Raji cells; 96 h, 10, 20 and 40 nM, Raji vs U2932): considerably higher fraction of dead Raji cells compared to the U2932 cells
cell viability (Raji cells; Raji cells, 10, 20, 40, 100 nM, 24-96 h): decreased cell viabilities
cell viability (U2932 cells [2]): decreased cell viabilities
cells in G2/M-phase (U2932 cells [3]): higher number of cells stuck in the G2/M-phase
logD7.4 [4]: 1.11 ± 0.08 (5)
Internalization 2 h [% of bound peptide] ([5]; 2 h, 125I-labeled): 27.9 ± 1.14 % of bound peptide

C[C@@H](NC(=O)[C@@H](CCCNC(=N)N)NC(=O)[C@@H](CN)NC(=O)C(CNCCN)CNCCN)C(=O)Nc1ccc(C(=O)NCCC[C@@H]2C(=O)N[C@@H](CCCNC(=N)N)C(=O)N[C@@H](Cc3ccc4ccccc4c3)C(=O)NCC(=O)N[C@H](Cc3ccc(O)cc3)C(=O)N2C)cc1 [Tc-CXCR4-14] (cyclo([dY][dNMeOrn]([4Abz-dA-dR-dDap-X1])R[2Nal]G))
tissue uptake at 1 h ([6]; Blood, read-out: % iD/g Blood): 1.62 %ID/g
tissue uptake at 1 h ([6]; Bone, read-out: % iD/g Bone): 1.31 %ID/g
tissue uptake at 1 h ([6]; Heart, read-out: % iD/g Heart): 1.21 %ID/g
tissue uptake at 1 h ([6]; Intestine, read-out: % iD/g Intestine): 0.92 %ID/g
tissue uptake at 1 h ([6]; Liver, read-out: % iD/g Liver): 7.67 %ID/g
tissue uptake at 1 h ([6]; Lung, read-out: % iD/g Lung): 3.99 %ID/g
tissue uptake at 1 h ([6]; Pancreas, read-out: % iD/g Pancreas): 0.56 %ID/g
tissue uptake at 1 h ([6]; Stomach, read-out: % iD/g Stomach): 1.97 %ID/g
tissue uptake at 1 h ([6]; Tumor, read-out: % iD/g Tumor): 8.63 %ID/g
delivered whole-body dose ([7]; 604 MBq injected): 3.8 mSv
whole-body effective dose ([7]; patient, multiple myeloma): 6.3 μSv/MBq
specific dose, kidneys [7, 9]: 10 μGy/MBq
specific dose, liver [7, 9]: 14 μGy/MBq
specific dose, osteogenic cells [7, 9]: 13 μGy/MBq
specific dose, red bone marrow [7, 9]: 11 μGy/MBq
specific dose, spleen [7, 9]: 47 μGy/MBq
logD7.4 ([4]; listed as [^99mTc]CXCR4-Tc-14): −1.75
IC50 (CXCR4 [8]): 10.2 nM
Internalized in relation to 125I-Fc-131 [%] ([5]; 10 min): 486 ± 18.9%
Cell-bound [%] ([5]; 10 min): 0.67 ± 0.14%
Internalized [%] ([5]; 10 min): 17.9 ± 0.59%
Internalized in relation to 125I-Fc-131 [%] ([5]; 30 min): 683 ± 51.3%
Cell-bound [%] ([5]; 30 min): 1.56 ± 0.41%
Internalized [%] ([5]; 30 min): 30.2 ± 0.74%
Internalized in relation to 125I-Fc-131 [%] ([5]; 60 min): 742 ± 45.2%
Cell-bound [%] ([5]; 60 min): 0.91 ± 0.14%
Internalized [%] ([5]; 60 min): 36.4 ± 0.20%
Internalization [% Fc-131] ([5]; 120 min): 666 (120 min) % Fc-131
Internalized in relation to 125I-Fc-131 [%] ([5]; 120 min): 694 ± 42.5%
Cell-bound [%] ([5]; 120 min): 1.11 ± 0.48%
Internalized [%] ([5]; 120 min): 37.9 ± 0.56%
Internalization (in % of 125I-FC-131) ([5]; time not given): 742%
